Structures can show the parent of a compound that is named as a salt. Where two headings read alike, the source gives them in different places.
Experiments:
Test in all cases: AK assay 384-well format, Prestwick library screening
E. faecium = format: cell-based, Enterococcus faecium; conditions: Enterococcus faecium, 3 h, 50 μM final drug concentration
P. aeruginosa = format: cell-based, Pseudomonas aeruginosa; conditions: Pseudomonas aeruginosa, 3 h, 50 μM final drug concentration
E. coli = format: cell-based, Escherichia coli; conditions: Escherichia coli, 3 h, 50 μM final drug concentration
[1] = system: S. aureus strain USA300-0114; format: cell-based, Staphylococcus aureus; conditions: Staphylococcus aureus, USA300, 3 h, 50 μM final drug concentration
K. pneumoniae = format: cell-based, Klebsiella pneumoniae; conditions: Klebsiella pneumoniae, 3 h, 50 μM final drug concentration
E. cloacae = format: cell-based, Enterobacter cloacae; conditions: Enterobacter cloacae, 3 h, 50 μM final drug concentration
[2] = system: A. baumannii strain 98-37-09; format: cell-based, Acinetobacter baumannii; conditions: Acinetobacter baumannii, 983709, 3 h, 50 μM final drug concentration
[3] = planktonic E. faecium, positive cutoff 3-fold increase, read-out: AK-based Prestwick library screening result, E. faecium (fold increase in extracellular AK activity)
[4] = planktonic P. aeruginosa, positive cutoff 3-fold increase, read-out: AK-based Prestwick library screening result, P. aeruginosa (fold increase in extracellular AK activity)
[5] = planktonic E. coli, positive cutoff 3-fold increase, read-out: AK-based Prestwick library screening result, E. coli (fold increase in extracellular AK activity)
[6] = planktonic S. aureus, positive cutoff 3-fold increase, read-out: AK-based Prestwick library screening result, S. aureus (fold increase in extracellular AK activity)
[7] = planktonic K. pneumoniae, positive cutoff 3-fold increase, read-out: AK-based Prestwick library screening result, K. pneumoniae (fold increase in extracellular AK activity)
[8] = planktonic E. cloacae, positive cutoff 3-fold increase, read-out: AK-based Prestwick library screening result, E. cloacae (fold increase in extracellular AK activity)
[9] = planktonic A. baumannii, positive cutoff 3-fold increase, read-out: AK-based Prestwick library screening result, A. baumannii (fold increase in extracellular AK activity)
[10] = planktonic E. faecium, 384-well, cutoff for positive-scoring molecules 3-fold increase, read-out: AK-based Prestwick Library Screening Results: E. faecium (increase in extracellular AK activity)
[11] = planktonic P. aeruginosa, 384-well, cutoff for positive-scoring molecules 3-fold increase, read-out: AK-based Prestwick Library Screening Results: P. aeruginosa (increase in extracellular AK activity)
[12] = planktonic E. coli, 384-well, cutoff for positive-scoring molecules 3-fold increase, read-out: AK-based Prestwick Library Screening Results: E. coli (increase in extracellular AK activity)
[13] = planktonic S. aureus, 384-well, cutoff for positive-scoring molecules 3-fold increase, read-out: AK-based Prestwick Library Screening Results: S. aureus (increase in extracellular AK activity)
[14] = planktonic K. pneumoniae, 384-well, cutoff for positive-scoring molecules 3-fold increase, read-out: AK-based Prestwick Library Screening Results: K. pneumoniae (increase in extracellular AK activity)
[15] = planktonic E. cloacae, 384-well, cutoff for positive-scoring molecules 3-fold increase, read-out: AK-based Prestwick Library Screening Results: E. cloacae (increase in extracellular AK activity)
[16] = planktonic A. baumannii, 384-well, cutoff for positive-scoring molecules 3-fold increase, read-out: AK-based Prestwick Library Screening Results: A. baumannii (increase in extracellular AK activity)

Work on `Nc1ccn([C@H]2CC[C@@H](CO)O2)c(=O)n1` [Zalcitabine] yielded a fold induction at 50 µM (E. faecium; [3]) of 1.1, a fold induction at 50 µM (P. aeruginosa; [4]) of 1 and a fold induction at 50 µM (E. coli; [5]) of 1.3. For the same compound, the fold induction at 50 µM [1, 6] was 1.1, the fold induction at 50 µM (K. pneumoniae; [7]) was 1.1 and the fold induction at 50 µM (E. cloacae; [8]) was 1.8. The fold induction at 50 µM [2, 9] was 1.2.

`CCC(=O)O[C@]1(C(=O)CCl)[C@@H](C)C[C@H]2[C@@H]3CCC4=CC(=O)C=C[C@]4(C)[C@@]3(F)[C@@H](O)C[C@@]21C` [Clobetasol propionate] showed a fold induction at 50 µM (E. faecium; cutoff for positive-scoring molecules 3-fold increase, read-out: AK-based Prestwick Library Screening Results, E. faecium (fold increase in extracellular AK activity)) of 1, a fold induction at 50 µM (P. aeruginosa; cutoff for positive-scoring molecules 3-fold increase, read-out: AK-based Prestwick Library Screening Results, P. aeruginosa (fold increase in extracellular AK activity)) of 1.1 and a fold induction at 50 µM (E. coli; cutoff for positive-scoring molecules 3-fold increase, read-out: AK-based Prestwick Library Screening Results, E. coli (fold increase in extracellular AK activity)) of 1.2. The fold induction at 50 µM ([1]; cutoff for positive-scoring molecules 3-fold increase, read-out: AK-based Prestwick Library Screening Results, S. aureus (fold increase in extracellular AK activity)) was 0.9, the fold induction at 50 µM (K. pneumoniae; cutoff for positive-scoring molecules 3-fold increase, read-out: AK-based Prestwick Library Screening Results, K. pneumoniae (fold increase in extracellular AK activity)) was 1 and the fold induction at 50 µM (E. cloacae; cutoff for positive-scoring molecules 3-fold increase, read-out: AK-based Prestwick Library Screening Results, E. cloacae (fold increase in extracellular AK activity)) was 1.3. It also gave a fold induction at 50 µM ([2]; cutoff for positive-scoring molecules 3-fold increase, read-out: AK-based Prestwick Library Screening Results, A. baumannii (fold increase in extracellular AK activity)) of 1.3.

In the case of `CCCCNC(=O)NS(=O)(=O)c1ccc(C)cc1` [Tolbutamide], the fold induction at 50 µM (E. faecium; 384-well format, cutoff for positive-scoring molecules 3-fold increase, read-out: AK-based Prestwick Library Screening Results, E. faecium (increase in extracellular AK activity)) was 1, the fold induction at 50 µM (P. aeruginosa; 384-well format, cutoff for positive-scoring molecules 3-fold increase, read-out: AK-based Prestwick Library Screening Results, P. aeruginosa (increase in extracellular AK activity)) was 0.9 and the fold induction at 50 µM (E. coli; 384-well format, cutoff for positive-scoring molecules 3-fold increase, read-out: AK-based Prestwick Library Screening Results, E. coli (increase in extracellular AK activity)) was 0.8. It also gave a fold induction at 50 µM ([1]; 384-well format, cutoff for positive-scoring molecules 3-fold increase, read-out: AK-based Prestwick Library Screening Results, S. aureus (increase in extracellular AK activity)) of 0.7, a fold induction at 50 µM (K. pneumoniae; 384-well format, cutoff for positive-scoring molecules 3-fold increase, read-out: AK-based Prestwick Library Screening Results, K. pneumoniae (increase in extracellular AK activity)) of 0.8 and a fold induction at 50 µM (E. cloacae; 384-well format, cutoff for positive-scoring molecules 3-fold increase, read-out: AK-based Prestwick Library Screening Results, E. cloacae (increase in extracellular AK activity)) of 1. For the same compound, the fold induction at 50 µM ([2]; 384-well format, cutoff for positive-scoring molecules 3-fold increase, read-out: AK-based Prestwick Library Screening Results, A. baumannii (increase in extracellular AK activity)) was 0.9.

Work on `NC(=O)N1c2ccccc2C=Cc2ccccc21` [Carbamazepine] yielded a fold induction at 50 µM (E. faecium; [10]) of 0.8, a fold induction at 50 µM (P. aeruginosa; [11]) of 1 and a fold induction at 50 µM (E. coli; [12]) of 1. For the same compound, the fold induction at 50 µM [1, 13] was 1, the fold induction at 50 µM (K. pneumoniae; [14]) was 0.9 and the fold induction at 50 µM (E. cloacae; [15]) was 1.5. For the same compound, the fold induction at 50 µM [2, 16] was 0.9.

For `Cc1cc(/C=C/c2ccc3cc(N(C)C)ccc3[n+]2C)c(C)n1-c1ccccc1` [Pyrvinium pamoate], the fold induction at 50 µM (E. faecium; [3]) was 1.5, the fold induction at 50 µM (P. aeruginosa; [4]) was 0.7 and the fold induction at 50 µM (E. coli; [5]) was 0.8. It also gave a fold induction at 50 µM [1, 6] of 1.4, a fold induction at 50 µM (K. pneumoniae; [7]) of 0.8 and a fold induction at 50 µM (E. cloacae; [8]) of 13.2. It also gave a fold induction at 50 µM [2, 9] of 0.9.

`CCCCN(CCCC)CCC(O)c1cc2c(Cl)cc(Cl)cc2c2cc(C(F)(F)F)ccc12` (centres unmarked) [Halofantrine hydrochloride] gave a fold induction at 50 µM (E. faecium; [3]) of 1, a fold induction at 50 µM (P. aeruginosa; [4]) of 1.1 and a fold induction at 50 µM (E. coli; [5]) of 1. For the same compound, the fold induction at 50 µM [1, 6] was 1.2, the fold induction at 50 µM (K. pneumoniae; [7]) was 1.1 and the fold induction at 50 µM (E. cloacae; [8]) was 1.3. It also gave a fold induction at 50 µM [2, 9] of 1.3.

With `OCCN(CCO)c1nc(N2CCCCC2)c2nc(N(CCO)CCO)nc(N3CCCCC3)c2n1` [Dipyridamole] the fold induction at 50 µM (E. faecium; [10]) was 0.9, the fold induction at 50 µM (P. aeruginosa; [11]) was 1.1 and the fold induction at 50 µM (E. coli; [12]) was 1.3. The fold induction at 50 µM [1, 13] was 0.8, the fold induction at 50 µM (K. pneumoniae; [14]) was 0.9 and the fold induction at 50 µM (E. cloacae; [15]) was 1.4. It also gave a fold induction at 50 µM [2, 16] of 1.2.

`Cc1cccc(Nc2ccncc2S(=O)(=O)NC(=O)NC(C)C)c1` [Torsemide] showed a fold induction at 50 µM (E. faecium; [3]) of 1, a fold induction at 50 µM (P. aeruginosa; [4]) of 1.1 and a fold induction at 50 µM (E. coli; [5]) of 1.1. The fold induction at 50 µM [1, 6] was 1.5, the fold induction at 50 µM (K. pneumoniae; [7]) was 1.3 and the fold induction at 50 µM (E. cloacae; [8]) was 1.4. The fold induction at 50 µM [2, 9] was 1.6.

`COc1cc(Cc2cnc(N)nc2N)cc(OC)c1OC` [Trimethoprim] was tested, and the fold induction at 50 µM (E. faecium; [10]) was 1.1, the fold induction at 50 µM (P. aeruginosa; [11]) was 1.1 and the fold induction at 50 µM (E. coli; [12]) was 1.2. For the same compound, the fold induction at 50 µM [1, 13] was 1, the fold induction at 50 µM (K. pneumoniae; [14]) was 0.8 and the fold induction at 50 µM (E. cloacae; [15]) was 7.2. It also gave a fold induction at 50 µM [2, 16] of 3.1.

Work on `C[C@@]12C(=O)OC(=O)[C@]1(C)[C@H]1CC[C@@H]2O1` [Cantharidin] yielded a fold induction at 50 µM (E. faecium; planktonic, […], read-out: AK-based Prestwick Library Screening Results, E. faecium (fold increase in extracellular AK activity)) of 0.8, a fold induction at 50 µM (P. aeruginosa; planktonic, […], read-out: AK-based Prestwick Library Screening Results, P. aeruginosa (fold increase in extracellular AK activity)) of 0.5 and a fold induction at 50 µM (E. coli; planktonic, […], read-out: AK-based Prestwick Library Screening Results, E. coli (fold increase in extracellular AK activity)) of 0.6. The fold induction at 50 µM ([1]; planktonic, […], read-out: AK-based Prestwick Library Screening Results, S. aureus (fold increase in extracellular AK activity)) was 0.5, the fold induction at 50 µM (K. pneumoniae; planktonic, […], read-out: AK-based Prestwick Library Screening Results, K. pneumoniae (fold increase in extracellular AK activity)) was 0.6 and the fold induction at 50 µM (E. cloacae; planktonic, […], read-out: AK-based Prestwick Library Screening Results, E. cloacae (fold increase in extracellular AK activity)) was 0.6. The fold induction at 50 µM ([2]; planktonic, […], read-out: AK-based Prestwick Library Screening Results, A. baumannii (fold increase in extracellular AK activity)) was 0.5.

Work on `O=C1CCc2cc(OCCCCc3nnnn3C3CCCCC3)ccc2N1` [Cilostazol] yielded a fold induction at 50 µM (E. faecium; planktonic E. faecium, cutoff for positive-scoring molecules 3-fold increase, read-out: AK-based Prestwick Library Screening Results, E. faecium (increase in extracellular AK activity)) of 0.9, a fold induction at 50 µM (P. aeruginosa; planktonic P. aeruginosa, cutoff for positive-scoring molecules 3-fold increase, read-out: AK-based Prestwick Library Screening Results, P. aeruginosa (increase in extracellular AK activity)) of 0.9 and a fold induction at 50 µM (E. coli; planktonic E. coli, cutoff for positive-scoring molecules 3-fold increase, read-out: AK-based Prestwick Library Screening Results, E. coli (increase in extracellular AK activity)) of 0.9. It also gave a fold induction at 50 µM ([1]; planktonic S. aureus, cutoff for positive-scoring molecules 3-fold increase, read-out: AK-based Prestwick Library Screening Results, S. aureus (increase in extracellular AK activity)) of 0.8, a fold induction at 50 µM (K. pneumoniae; planktonic K. pneumoniae, cutoff for positive-scoring molecules 3-fold increase, read-out: AK-based Prestwick Library Screening Results, K. pneumoniae (increase in extracellular AK activity)) of 0.7 and a fold induction at 50 µM (E. cloacae; planktonic E. cloacae, cutoff for positive-scoring molecules 3-fold increase, read-out: AK-based Prestwick Library Screening Results, E. cloacae (increase in extracellular AK activity)) of 0.9. It also gave a fold induction at 50 µM ([2]; planktonic A. baumannii, cutoff for positive-scoring molecules 3-fold increase, read-out: AK-based Prestwick Library Screening Results, A. baumannii (increase in extracellular AK activity)) of 0.9.
